Data from US20200239530A1, “COMPOUNDS AND METHODS OF MODULATING PROTEIN DEGRADATION” (Vividion Therapeutics, Inc., priority 2017, published 2020).

Tests used:
Assay in all cases: Cysteine liganding, probe competition
Format in all cases: binding
[1] = molecular target: T1, BIRC3 Baculoviral IAP repeat-containing protein 3 (Homo sapiens, UniProt Q13489)
T1 construct: Cells were resuspended in cold PBS on ice and sonicated with a probe sonicator to achieve lysis; endogenous in cells
Outline: (§1)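 Steps: sonicate cells in cold PBS; treat 5 mg/ml lysate with compound (25° C, 1 hr); add desthiobiotin iodoacetamide probe from a 10 mM stock (25° C, 1 hr); precipitate, reduce, alkylate, digest with trypsin; capture labelled peptides on streptavidin for analysis.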

[2] = molecular target: T2, DECR2 Peroxisomal 2,4-dienoyl-CoA reductase (Homo sapiens, UniProt Q9NUI1); conditions: for Liganded: DECR2 Res# 120, uniprot Q9NUI1
T2 construct: 200 μL of lysate containing 5 mg/ml proteome was treated with 2 μL of 100× compound stock; endogenous in cells
T2 sequence (Q9NUI1 1-292): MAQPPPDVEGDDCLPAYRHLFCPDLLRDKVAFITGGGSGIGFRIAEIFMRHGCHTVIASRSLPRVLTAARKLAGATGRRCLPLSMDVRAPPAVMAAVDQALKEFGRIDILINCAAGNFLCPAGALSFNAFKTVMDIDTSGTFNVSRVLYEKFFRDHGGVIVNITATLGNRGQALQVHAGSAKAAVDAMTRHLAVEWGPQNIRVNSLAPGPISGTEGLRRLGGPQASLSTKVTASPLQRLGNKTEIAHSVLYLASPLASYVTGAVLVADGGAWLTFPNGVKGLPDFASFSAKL
Outline: as §1

FASN Fatty acid synthase = molecular target: T3, FASN Fatty acid synthase (Homo sapiens, UniProt P49327)
T3 construct: 200 μL of lysate containing 5 mg/ml proteome was treated with 2 μL of 100× compound stock; endogenous in cells
T3 sequence (P49327 whole entry): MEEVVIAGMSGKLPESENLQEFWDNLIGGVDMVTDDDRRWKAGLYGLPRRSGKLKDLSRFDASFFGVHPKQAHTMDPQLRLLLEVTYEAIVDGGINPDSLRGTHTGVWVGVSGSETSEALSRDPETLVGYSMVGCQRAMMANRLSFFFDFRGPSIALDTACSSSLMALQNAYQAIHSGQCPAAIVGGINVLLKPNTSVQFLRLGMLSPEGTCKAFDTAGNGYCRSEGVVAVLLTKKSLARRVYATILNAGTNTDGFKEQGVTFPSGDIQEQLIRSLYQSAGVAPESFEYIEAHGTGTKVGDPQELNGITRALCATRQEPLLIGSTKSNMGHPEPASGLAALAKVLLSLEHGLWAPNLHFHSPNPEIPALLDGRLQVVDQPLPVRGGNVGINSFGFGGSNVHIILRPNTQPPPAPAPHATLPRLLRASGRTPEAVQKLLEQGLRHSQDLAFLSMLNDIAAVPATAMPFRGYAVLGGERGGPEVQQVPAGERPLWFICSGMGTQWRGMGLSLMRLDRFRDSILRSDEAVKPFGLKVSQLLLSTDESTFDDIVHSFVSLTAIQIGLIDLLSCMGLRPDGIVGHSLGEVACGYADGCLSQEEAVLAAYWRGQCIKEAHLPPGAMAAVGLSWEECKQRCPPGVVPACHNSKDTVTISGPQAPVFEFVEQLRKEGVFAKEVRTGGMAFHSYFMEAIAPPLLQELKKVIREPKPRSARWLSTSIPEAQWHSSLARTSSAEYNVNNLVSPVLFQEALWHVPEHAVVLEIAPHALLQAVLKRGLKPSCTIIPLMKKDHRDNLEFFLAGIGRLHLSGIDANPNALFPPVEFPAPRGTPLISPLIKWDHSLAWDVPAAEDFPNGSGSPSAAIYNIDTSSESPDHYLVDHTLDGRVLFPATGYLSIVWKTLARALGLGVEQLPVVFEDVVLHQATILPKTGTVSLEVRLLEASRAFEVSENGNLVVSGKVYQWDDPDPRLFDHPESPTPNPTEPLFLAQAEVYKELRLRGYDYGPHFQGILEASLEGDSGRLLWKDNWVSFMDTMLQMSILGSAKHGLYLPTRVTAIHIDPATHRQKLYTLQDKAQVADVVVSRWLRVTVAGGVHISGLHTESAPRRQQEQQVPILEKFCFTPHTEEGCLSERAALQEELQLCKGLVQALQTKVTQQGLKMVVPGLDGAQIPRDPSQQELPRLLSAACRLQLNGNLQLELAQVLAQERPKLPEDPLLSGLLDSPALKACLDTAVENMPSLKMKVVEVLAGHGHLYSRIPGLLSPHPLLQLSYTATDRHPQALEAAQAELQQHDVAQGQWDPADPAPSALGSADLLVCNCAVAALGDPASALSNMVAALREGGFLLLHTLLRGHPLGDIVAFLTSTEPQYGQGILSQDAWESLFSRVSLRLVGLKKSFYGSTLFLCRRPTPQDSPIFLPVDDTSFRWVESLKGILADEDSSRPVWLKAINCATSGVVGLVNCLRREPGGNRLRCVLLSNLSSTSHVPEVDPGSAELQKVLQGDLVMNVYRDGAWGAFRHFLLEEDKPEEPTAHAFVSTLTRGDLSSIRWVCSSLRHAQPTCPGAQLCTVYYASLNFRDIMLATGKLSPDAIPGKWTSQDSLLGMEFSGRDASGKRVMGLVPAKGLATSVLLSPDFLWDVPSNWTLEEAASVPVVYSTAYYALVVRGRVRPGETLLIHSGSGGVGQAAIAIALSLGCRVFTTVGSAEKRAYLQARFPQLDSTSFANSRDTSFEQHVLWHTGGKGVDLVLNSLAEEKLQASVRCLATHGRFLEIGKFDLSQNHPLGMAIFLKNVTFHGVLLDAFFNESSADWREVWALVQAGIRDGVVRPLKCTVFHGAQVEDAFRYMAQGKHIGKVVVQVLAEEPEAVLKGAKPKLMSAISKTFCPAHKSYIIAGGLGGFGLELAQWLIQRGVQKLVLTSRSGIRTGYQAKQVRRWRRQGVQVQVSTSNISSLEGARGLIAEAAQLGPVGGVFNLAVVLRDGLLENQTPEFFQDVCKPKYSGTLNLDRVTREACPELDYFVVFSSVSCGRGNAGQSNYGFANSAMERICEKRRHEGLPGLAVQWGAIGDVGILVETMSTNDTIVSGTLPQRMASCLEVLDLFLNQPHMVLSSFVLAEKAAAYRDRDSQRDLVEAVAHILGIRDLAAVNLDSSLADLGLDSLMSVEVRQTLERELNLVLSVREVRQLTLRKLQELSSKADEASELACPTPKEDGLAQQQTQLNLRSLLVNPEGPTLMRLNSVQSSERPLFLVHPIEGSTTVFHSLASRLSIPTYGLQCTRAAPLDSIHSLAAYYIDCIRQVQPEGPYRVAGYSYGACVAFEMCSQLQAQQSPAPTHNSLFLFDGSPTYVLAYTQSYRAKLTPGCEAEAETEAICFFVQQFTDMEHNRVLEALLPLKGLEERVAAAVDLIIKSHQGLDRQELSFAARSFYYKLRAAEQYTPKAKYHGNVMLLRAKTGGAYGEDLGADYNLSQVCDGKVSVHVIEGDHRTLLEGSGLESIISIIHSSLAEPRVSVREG
Outline: as §1

[3] = molecular target: T4, HUWE1 E3 ubiquitin-protein ligase HUWE1 (Homo sapiens, UniProt Q7Z6Z7)
T4 construct: Cells were resuspended in cold PBS on ice and sonicated with a probe sonicator to achieve lysis; endogenous in cells
Outline: as §1

[4] = molecular target: T5, RPN1 Dolichyl-diphosphooligosaccharide--protein glycosy (Homo sapiens, UniProt P04843)
T5 construct: Cells were resuspended in cold PBS on ice and sonicated with a probe sonicator to achieve lysis; endogenous in cells
T5 sequence (P04843 24-607): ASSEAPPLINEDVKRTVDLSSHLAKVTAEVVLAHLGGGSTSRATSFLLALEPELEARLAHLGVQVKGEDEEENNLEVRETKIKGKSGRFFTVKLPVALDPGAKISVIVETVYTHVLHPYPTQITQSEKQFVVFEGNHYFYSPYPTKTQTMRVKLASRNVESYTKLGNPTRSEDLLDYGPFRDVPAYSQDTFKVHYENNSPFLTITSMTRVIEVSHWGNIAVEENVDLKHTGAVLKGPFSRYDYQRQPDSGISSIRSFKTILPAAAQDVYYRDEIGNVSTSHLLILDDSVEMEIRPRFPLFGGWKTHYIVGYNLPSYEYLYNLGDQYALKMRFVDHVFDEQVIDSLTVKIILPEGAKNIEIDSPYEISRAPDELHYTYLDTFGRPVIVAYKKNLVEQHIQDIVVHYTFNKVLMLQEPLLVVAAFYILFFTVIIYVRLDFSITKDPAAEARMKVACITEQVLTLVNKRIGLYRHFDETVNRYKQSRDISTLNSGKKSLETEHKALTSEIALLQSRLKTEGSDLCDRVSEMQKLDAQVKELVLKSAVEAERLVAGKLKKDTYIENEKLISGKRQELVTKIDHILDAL
Outline: as §1

T1 sequence (Q13489 whole entry): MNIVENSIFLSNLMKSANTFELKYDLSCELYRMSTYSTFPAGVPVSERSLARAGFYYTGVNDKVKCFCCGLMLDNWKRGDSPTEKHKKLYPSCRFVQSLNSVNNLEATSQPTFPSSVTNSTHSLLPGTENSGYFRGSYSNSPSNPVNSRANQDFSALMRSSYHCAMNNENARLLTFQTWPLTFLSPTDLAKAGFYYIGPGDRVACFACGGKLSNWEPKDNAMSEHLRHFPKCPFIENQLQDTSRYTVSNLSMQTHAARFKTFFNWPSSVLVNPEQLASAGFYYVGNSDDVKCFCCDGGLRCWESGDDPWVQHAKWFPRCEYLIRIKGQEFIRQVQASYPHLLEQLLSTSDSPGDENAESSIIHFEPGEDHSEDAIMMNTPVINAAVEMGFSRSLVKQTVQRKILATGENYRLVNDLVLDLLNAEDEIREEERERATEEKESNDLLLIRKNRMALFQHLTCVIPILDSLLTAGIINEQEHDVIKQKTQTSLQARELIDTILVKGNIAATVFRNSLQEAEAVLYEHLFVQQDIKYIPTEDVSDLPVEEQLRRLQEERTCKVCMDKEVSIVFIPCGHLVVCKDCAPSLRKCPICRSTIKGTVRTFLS

## COc1ccc2c(c1)CCCN2C(=O)CCl [KB02]
[1]; BIRC3 Res# 28, uniprot Q13489
  Liganded: YES
[2]
  Liganded: YES
FASN Fatty acid synthase; FASN Res# 161, uniprot P49327
  Liganded: YES
[3]; HUWE1 Res# 2181, uniprot Q7Z6Z7
  Liganded: YES
[4]; RPN1 Res# 477, uniprot P04843
  Liganded: YES

## O=C(CCl)Nc1cc(C(F)(F)F)cc(C(F)(F)F)c1 [KBO3]
[1]; uniprot Q13489
  100 Max: 1.3
  100 ave: −2.6
  500 Max: 18.7
  500 ave: 18.7
[2]
  Liganded: YES
[2]; uniprot Q9NUI1
  100 Max: 66.9
  100 ave: 66.9
  500 Max: 85
  500 ave: 85
FASN Fatty acid synthase; uniprot P49327
  100 Max: −26.25
  100 ave: −26.25
[3]; uniprot Q7Z6Z7
  100 ave: 9.7
[3]; uniprot Q7Z6Z7, unit assumed
  100 Max: 9.7%
[4]; uniprot P04843
  100 Max: 9.24
  100 ave: −5.035
  500 ave: 23.85
[4]; uniprot P04843, in % (unit assumed)
  500 Max: 28.71
